From patent US10519197B1, “Peptide-based proteasome inhibitors for treating conditions mediated by senescent cells and for treating cancer” (UNITY BIOTECHNOLOGY, INC., priority 2017, dated 2019)

Experiments:
Format in all cases: in vivo, mouse
[1] = tested on: p16, IL-6, and MMP13; assay: Osteoarthritis model (ACL surgery): qRT-PCR of senescence and SASP markers in operated joints; details: 5.8 μg per operated knee, intra-articular, q.o.d. for 2 weeks; 4 weeks post-surgery; mRNA by qRT-PCR
Experimental: (§1) The model was implemented as follows. C57BL/6J mice underwent surgery to cut the anterior cruciate ligament of one rear limb to induce osteoarthritis in the joint of that limb. During week 3 and week 4 post-surgery, the mice were treated with 5.8 μg of Nutlin-3A (n=7) per operated knee by intra-articular injection, q.o.d. for 2 weeks. At the end of 4 weeks post-surgery, joints of the mice were monitored for presence of senescent cells, assessed for function, monitored for markers of inflammation, and underwent histological assessment.
Two control groups of mice were included in the studies performed: one group comprising C57BL/6J or 3MR mice that had undergone a sham surgery (n=3) (i.e., surgical procedures followed except for cutting the ACL) and intra-articular injections of vehicle parallel to the GCV (ganciclovir) treated group; and one group comprising C57BL/6J or 3MR mice that had undergone an ACL surgery and received intra-articular injections of vehicle (n=5) parallel to the GCV-treated group. RNA from the operated joints of mice from the Nutlin-3A treated mice was analyzed for expression of SASP factors (mmp3, IL-6) and senescence markers (p16). qRT-PCR was performed to detect mRNA levels.

[2] = tested on: C57BL/6J mice with surgery-induced osteoarthritis; assay: Osteoarthritis model (ACL surgery): weight bearing test; details: 5.8 μg per operated knee, intra-articular; 4 weeks post-surgery
Experimental: as §1
Function of the limbs was assessed 4 weeks post-surgery by a weight bearing test to determine which leg the mice favored. The mice were allowed to acclimate to the chamber on at least three occasions prior to taking measurements. Mice were maneuvered inside the chamber to stand with one hind paw on each scale. The weight that was placed on each hind limb was measured over a three second period. At least three separate measurements were made for each animal at each time point. The results were expressed as the percentage of the weight placed on the operated limb versus the contralateral unoperated limb.

[3] = tested on: C57BL/6J mice with surgery-induced osteoarthritis; assay: Osteoarthritis model (ACL surgery): histopathology of joint tissue; details: 5.8 μg per operated knee, intra-articular; 4 weeks post-surgery
Experimental: as §1

[4] = tested on: 3MR and INK-ATTAC mice exposed to cigarette smoke; assay: Cigarette smoke COPD model, oxygen saturation by pulse oximeter; details: after two months of cigarette smoke exposure, compared with untreated controls
Experimental: As a model for chronic obstructive pulmonary disease (COPD), mice were exposed to cigarette smoke. The effect of a senolytic agent on the mice exposed to smoke is assessed by senescent cell clearance, lung function, and histopathology.
The mice used in this study include the 3MR strain, described in US 2017/0027139 A1 and in Demaria et al., Dev Cell. 2014 December 22; 31(6): 722-733. The 3MR mouse has a transgene encoding thymidine kinase that converts the prodrug ganciclovir (GCV) to a compound that is lethal to cells. The enzyme in the transgene is placed under control of the p16 promoter, which causes it to be specifically expressed in senescent cells. Treatment of the mice with GCV eliminates senescent cells.
Other mice used in this study include the INK-ATTAC strain, described in US 2015/0296755 A1 and in Baker et al., Nature 2011 Nov. 2; 479(7372):232-236. The INK-ATTAC mouse has a transgene encoding switchable caspase 8 under control of the p16 promoter. The caspase 8 can be activated by treating the mice with the switch compound AP20187, whereupon the caspase 8 directly induces apoptosis in senescent cells, eliminating them from the mouse.
To conduct the experiment, six-week-old 3MR (n=35) or INK-ATTAC (n=35) mice were chronically exposed to cigarette smoke generated from a Teague TE-10 system, an automatically-controlled cigarette smoking machine that produces a combination of side-stream and mainstream cigarette smoke in a chamber, which is transported to a collecting and mixing chamber where varying amounts of air is mixed with the smoke mixture. The COPD protocol was adapted from the COPD core facility at Johns Hopkins University (Rangasamy et al., 2004, J. Clin. Invest. 114:1248-1259; Yao et al., 2012, J. Clin. Invest. 122:2032-2045).
Mice received a total of 6 hours of cigarette smoke exposure per day, 5 days a week for 6 months. Each lighted cigarette (3R4F research cigarettes containing 10.9 mg of total particulate matter (TPM), 9.4 mg of tar, and 0.726 mg of nicotine, and 11.9 mg carbon monoxide per cigarette [University of Kentucky, Lexington, Ky.]) was puffed for 2 seconds and once every minute for a total of 8 puffs, with the flow rate of 1.05 L/min, to provide a standard puff of 35 cm^3. […] The smoke chamber atmosphere was monitored for total suspended particulates (80-120 mg/m3) and carbon monoxide (350 ppm). […]
After two months of cigarette smoke (CS) exposure, lung function was assessed by monitoring oxygen saturation using the MouseSTAT PhysioSuite™ pulse oximeter (Kent Scientific). […] Mice were monitored for 30 seconds and the average peripheral capillary oxygen saturation (SpO2) measurement over this duration was calculated.

[5] = tested on: MMP3, MMP13, PAI1, p21, IGFBP2, IL-1A, and IL-1B; assay: Atherosclerosis model (LDLR-/- mice, high fat diet): RT-PCR of SASP factors and senescent cell markers in aortic arches; details: 25 mg/kg intraperitoneally, HFD
Experimental: Two groups of LDLR−/− mice (10 weeks) are fed a high fat diet (HFD) (Harlan Teklad TD.88137) having 42% calories from fat, beginning at Week 0 and throughout the study. Two groups of LDLR−/− mice (10 weeks) are fed normal chow (−HFD). From weeks 0-2, one group of HFD mice and −HFD mice are treated with Nutlin-3A (25 mg/kg, intraperitoneally). One treatment cycle is 14 days treatment, 14 days off. Vehicle is administered to one group of HFD mice and one group of −HFD mice. At week 4 (timepoint 1), one group of mice are sacrificed and to assess presence of senescent cells in the plaques. For the some of the remaining mice, Nutlin-3A and vehicle administration is repeated from weeks 4-6. […]
At the end of timepoint 1, LDLR−/− mice fed a HFD and treated with Nutlin-3A or vehicle were sacrificed (n=3, all groups), and the aortic arches were dissected for RT-PCR analysis of SASP factors and senescent cell markers. Values were normalized to GAPDH and expressed as fold-change versus age-matched, vehicle-treated LDLR−/− mice on a normal diet.
At the end of timepoint 2, LDLR−/− mice fed a HFD and treated with Nutlin-3A or vehicle (n=3 for all groups) were sacrificed, and aortic arches were dissected for RT-PCR analysis of SASP factors and senescent cell markers. Values were normalized to GAPDH and expressed as fold-change versus age-matched, vehicle-treated LDLR−/− mice on a normal diet.

[6] = tested on: LDLR-/- mice fed a HFD; assay: Atherosclerosis model (LDLR-/- mice, high fat diet): Sudan IV staining of aortic plaques; details: 25 mg/kg intraperitoneally, timepoint 3 (week 12)
Experimental: (§2) Two groups of LDLR−/− mice (10 weeks) are fed a high fat diet (HFD) (Harlan Teklad TD.88137) having 42% calories from fat, beginning at Week 0 and throughout the study. Two groups of LDLR−/− mice (10 weeks) are fed normal chow (−HFD). From weeks 0-2, one group of HFD mice and −HFD mice are treated with Nutlin-3A (25 mg/kg, intraperitoneally). One treatment cycle is 14 days treatment, 14 days off. Vehicle is administered to one group of HFD mice and one group of −HFD mice. At week 4 (timepoint 1), one group of mice are sacrificed and to assess presence of senescent cells in the plaques. For the some of the remaining mice, Nutlin-3A and vehicle administration is repeated from weeks 4-6. At week 8 (timepoint 2), the mice are sacrificed and to assess presence of senescent cells in the plaques. The remaining mice are treated with Nutlin-3A or vehicle from weeks 8-10. At week 12 (timepoint 3), the mice are sacrificed and to assess the level of plaque and the number of senescent cells in the plaques.
(§3) At the end of timepoint 3, LDLR−/− mice fed a HFD and treated with Nutlin-3A or vehicle (n=3 for all groups) were sacrificed, and aortas were dissected and stained with Sudan IV to detect the presence of lipid. Body composition of the mice was analyzed by MRI, and circulating blood cells were counted by Hemavet™.

[7] = Atherosclerosis model: circulating blood cell counts by Hemavet; details: 25 mg/kg intraperitoneally, timepoint 3 (week 12)
Experimental: as §2, §3

[8] = Atherosclerosis model: body composition by MRI; details: 25 mg/kg intraperitoneally, timepoint 3 (week 12), mice fed the high fat diet
Experimental: as §2, §3

In the case of `COc1ccc(C2=N[C@@H](c3ccc(Cl)cc3)[C@@H](c3ccc(Cl)cc3)N2C(=O)N2CCNC(=O)C2)c(OC(C)C)c1` [Nutlin-3A], the “expression of p16, IL-6, and MMP13 in the tissue” value [1] was “reduced the expression back to below the level of the controls”, the “weight bearing: favoring of the unoperated hind limb over the operated hind limb” value [2] was “abrogated this effect” and the “destruction of the proteoglycan layer (histopathology of joint tissue)” value [3] was “completely abrogated this effect”. The SpO2 levels [4] was “statistically significant increases”, the “expression of SASP factors and senescent cell markers MMP3, MMP13, PAI1, p21, IGFBP2, IL-1A, and IL-1B in aortic arch” value ([5]; after one treatment cycle (timepoint 1, week 4)) was “reduced expression” and the “expression of SASP factors and senescent cell markers in aortic arch” value ([5]; multiple treatment cycles (timepoint 2, week 8)) was “reduced expression of most markers”. For the same molecule, the “reduction of the surface area covered by plaques in the descending aorta” value [6] was “about 45%”, the “platelet and lymphocyte counts versus vehicle treated mice” value [7] was “equivalent” and the “mass and body fat composition” value [8] was “decreased”.

With `CC[C@H](C(=O)N1CCCC[C@H]1C(=O)O[C@H](CCc1ccc(OC)c(OC)c1)c1cccc(OCC(=O)NCC(CNC(=O)COc2cccc([C@@H](CCc3ccc(OC)c(OC)c3)OC(=O)[C@@H]3CCCCN3C(=O)[C@@H](CC)c3cc(OC)c(OC)c(OC)c3)c2)CN(C)C)c1)c1cc(OC)c(OC)c(OC)c1` [AP2018] the SpO2 levels [4] was “statistically significant increases”.

With `CC1(C)CCC(c2ccc(Cl)cc2)=C(CN2CCN(c3ccc(C(=O)NS(=O)(=O)c4ccc(N[C@H](CCN5CCOCC5)CSc5ccccc5)c(S(=O)(=O)C(F)(F)F)c4)cc3)CC2)C1` [ABT-263] the SpO2 levels [4] was “statistically significant increases”.

For `Nc1nc(O)c2ncn(COC(CO)CO)c2n1` [ganciclovir], the SpO2 levels [4] was “statistically significant increases”.
